{"source": "patent US11186618B2", "about": "“Dendritic-cell-targeted peptide, fusion peptide utilizing said peptide, and vaccine utilizing said fusion peptide” (The Research Foundation for Microbial Diseases of Osaka …, priority 2016, dated 2021)", "key": {"[1]": {"test_system": "antigen-specific CD8^+ CTLs", "assay": "IFN-γ production by immune cells of regional lymph nodes, Kras G12D peptide (Test Example 10)", "type": "in vivo, mouse", "settings": "50 μg as G12D-derived peptide with 10 μg CpG oligodeoxynucleotide, subcutaneously into the ears Day 0, lymph node cells Day 7, cultured 24 hours", "protocol": "A fusion peptide (G12D-FL4) was prepared by linking the N-terminus of the peptide consisting of the amino acid sequence of FL4 to the C-terminus of a partial peptide of Kras containing G12D mutation (G12D-derived peptide; LVVVGADGV (SEQ ID NO: 42); the 6th to 14th amino acid sequence from the N-terminal side of Kras containing G12D mutation). Specifically, the amino acid sequence of the fusion peptide is [Partial sequence of Kras containing G12D mutation (LVVVGADGV; SEQ ID NO: 42)]-[VSYKAIR; SEQ ID NO: 1]. The production method of the fusion peptide was the same as that of PspA-FL4 except that a DNA molecule encoding the G12D-derived peptide was used.\n50 μL of physiological saline containing 50 μg of G12D-FL4 in terms of the G12D-derived peptide amount and 10 μg of CpG oligodeoxynucleotide (K3 type, product name “K3 Et-Free”, product number “CN-65003” manufactured by GeneDesign Inc.) was administered subcutaneously into the ears of 7-week old C57BL/6 mice on Day 0, regional lymph nodes were collected on Day 7 and immune cells were recovered. […]"}, "[2]": {"molecular_target": "Neuropilin-1 (Homo sapiens, UniProt O14786)", "sequence (O14786 22-923, species assumed)": "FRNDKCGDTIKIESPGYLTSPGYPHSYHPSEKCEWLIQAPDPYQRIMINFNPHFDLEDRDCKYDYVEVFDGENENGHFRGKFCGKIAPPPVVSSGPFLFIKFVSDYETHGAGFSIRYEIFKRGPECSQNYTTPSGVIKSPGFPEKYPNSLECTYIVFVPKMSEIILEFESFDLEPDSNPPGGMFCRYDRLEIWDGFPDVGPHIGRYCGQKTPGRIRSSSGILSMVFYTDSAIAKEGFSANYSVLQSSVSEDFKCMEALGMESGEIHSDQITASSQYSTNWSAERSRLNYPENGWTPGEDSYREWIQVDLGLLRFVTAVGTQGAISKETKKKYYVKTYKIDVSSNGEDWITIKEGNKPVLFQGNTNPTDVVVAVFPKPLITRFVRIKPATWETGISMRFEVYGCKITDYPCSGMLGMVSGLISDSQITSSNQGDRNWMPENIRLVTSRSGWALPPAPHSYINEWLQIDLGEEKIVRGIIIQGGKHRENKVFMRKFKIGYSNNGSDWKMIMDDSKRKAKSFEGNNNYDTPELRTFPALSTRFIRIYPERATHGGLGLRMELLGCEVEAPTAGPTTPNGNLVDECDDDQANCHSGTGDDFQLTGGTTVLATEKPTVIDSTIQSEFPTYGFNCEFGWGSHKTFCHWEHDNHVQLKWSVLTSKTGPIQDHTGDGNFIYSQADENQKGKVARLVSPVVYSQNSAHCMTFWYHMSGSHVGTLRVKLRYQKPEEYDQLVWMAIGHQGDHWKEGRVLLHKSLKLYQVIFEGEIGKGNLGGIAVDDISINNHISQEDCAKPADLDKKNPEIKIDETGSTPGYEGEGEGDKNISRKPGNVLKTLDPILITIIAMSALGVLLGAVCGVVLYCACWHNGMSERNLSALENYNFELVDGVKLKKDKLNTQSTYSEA", "settings": "reported so far; cited from earlier work"}, "[3]": {"test_system": "antigen-specific CD8^+ CTLs", "assay": "Tetramer assay on regional lymph nodes, CD8+ CTL inducibility (Test Example 8)", "type": "in vivo, mouse", "settings": "co-administered with CpG oligodeoxynucleotide, 50 μg in terms of SL8 subcutaneously into the ears Day 0, lymph nodes Day 7", "protocol": "A fusion peptide (SL8-FL4) was prepared by linking the N-terminus of the peptide consisting of the amino acid sequence of FL4 to the C-terminus of SL8 (SIINFEKL; SEQ ID NO: 40) which is an MHC class I epitope peptide in chicken ovalbumin (OVA). Specifically, the amino acid sequence of the fusion peptide is [Amino acid sequence of SL8 (SIINFEKL; SEQ ID NO: 40)]-[VSYKAIR; SEQ ID NO: 1]. The production method of the fusion peptide was the same as that of PspA-FL4 except that a DNA molecule encoding SL8 was used. In addition, each of peptide-fusion bodies (SL8-F8 and SL8-FL4Scr) in which the peptide was fused with SL8 was prepared using each of FL8 and the scramble peptide of FL4 (FL4Scr, amino acid sequence: YRSIVKA, SEQ ID NO: 41) in the same manner. […]\n(§1) The tetramer assay was carried out as follows. Lymphocytes were recovered from the regional lymph nodes, were stained with fluorescently labeled antibodies against CD44 and CD8 and a fluorescently labeled tetramer recognizing the SL8 peptide presented on H-2K^b, then were analyzed using a flow cytometer."}, "[4]": {"test_system": "EG7 cells", "assay": "Tumor size in mice transplanted with EG7 cells (Test Example 9)", "type": "in vivo, mouse", "settings": "EG7 tumor bearing C57BL/6 mice", "protocol": "In this test, whether the regression effect of cancer was observed by SL8-specific CD8^+ CTLs induced by SL8-FL4 was evaluated. In this test, EG7 cells (cancer cells expressing OVA protein in EL4 cells derived from thymoma of C57BL/6 mouse) were used as cancer cells. Specific test methods are as follows.\n1 (10^6 EG7 cells were transplanted into the abdomen of 7-week old C57BL/6 mice to prepare tumor bearing mice. 50 μL of physiological saline containing 50 μg of SL8-FL4 in terms of SL8 amount and 50 μg of CpG oligodeoxynucleotide (K3 type, product name “K3 Et-Free”, product number “CN-65003” manufactured by GeneDesign Inc.) was administered subcutaneously into the ears of mice after EG7 cells were transplanted and the tumor diameter reached about 5 mm (about 5 days after transplantation). Thereafter, tumor size was measured over time while breeding the mice. In addition, similar tests were carried out with regard to the case where 50 μL of physiological saline containing 50 μg SL8 and 50 μg of CpG oligodeoxynucleotide was administered, and the case where only physiological saline was administered (control). Meanwhile, in these tests, five mice in each group were used."}, "[5]": {"test_system": "antigen-specific CD8^+ CTLs", "assay": "Tetramer assay after pulmonary administration (Test Example 13)", "type": "in vivo, mouse", "settings": "pulmonary administration Day 0 and Day 7 with 10 μg CpG oligodeoxynucleotide, Day 14", "protocol": "as §1\n40 μL of physiological saline containing 50 μg of SL8-FL4 in terms of SL8 amount and 10 μg of CpG oligodeoxynucleotide (K3 type, product name “K3 Et-Free”, product number “CN-65003” manufactured by GeneDesign Inc.) was pulmonarily administrated to 7-week old C57BL/6 mice on Day 0 and Day 7, regional lymph nodes, lung tissues and the spleen were collected on Day 14 and a tetramer assay was performed in the same manner as Test Example 8. In addition, similar tests were conducted with regard to the case where 40 μL of physiological saline containing 50 μg SL8 alone was pulmonarily administered, the case where 50 μL of physiological saline containing 50 μg SL8 and 10 μg of CpG oligodeoxynucleotide was pulmonarily administered, and the case where only physiological saline was pulmonarily administered (control). Meanwhile, in these tests, five mice in each group were used."}, "[6]": {"test_system": "antigen-specific CD8^+ CTLs", "assay": "Tetramer assay, pulmonary versus subcutaneous administration (Test Example 14)", "type": "in vivo, mouse", "settings": "Day 14", "protocol": "as §1\nIn this study, CD8^+ cytotoxic T cells inducibility by pulmonary administration and that by subcutaneous administration were compared by using SL8-FL4. 40 μL of physiological saline containing 50 μg of SL8-FL4 in terms of SL8 amount and 10 μg of CpG oligodeoxynucleotide (K3 type, product name “K3 Et-Free”, product number “CN-65003” manufactured by GeneDesign Inc.) was pulmonarily or subcutaneously administered to 7-week old C57BL/6 mice on Day 0 and Day 7, regional lymph nodes and the spleen were collected on Day 14 and a tetramer assay was performed in the same manner as Test Example 8. In addition, a test was also carried out in the case where only physiological saline was subcutaneously administered in the same manner (control). Meanwhile, in these tests, five mice in each group were used."}}, "data": [{"substance": "LVVVGADGV [G12D-derived peptide, partial peptide of Kras containing G12D mutation, reference compound]", "values": [{"measurement": "induction of antigen-specific CD8+ CTLs (IFN-γ production ability)", "setting": "[1]", "value": "no induction"}]}, {"substance": "RPARPAR (positive control peptide)", "values": [{"measurement": "binding to Neuropilin-1", "setting": "[2]", "value": "bind to Neuropilin-1"}]}, {"substance": "[Amino acid sequence of SL8 (SIINFEKL; SEQ ID NO: 40)]-[VSYKAIR; SEQ ID NO: 1] (SIINFEKLVSYKAIR; SL8 C-terminus; Amino acid sequence of motif sequence) [SL8-FL4, fusion peptide of SL8 and FL4]", "values": [{"measurement": "induction of antigen-specific CD8+ CTLs (tetramer assay, regional lymph nodes)", "setting": "[3]", "value": "strong induction"}, {"measurement": "tumor regression effects", "setting": "[4]; 50 μg as SL8 with 50 μg CpG oligodeoxynucleotide subcutaneously into the ears, compared with physiological saline", "value": "very strong tumor regression effects"}, {"measurement": "cure of tumor bearing mice", "setting": "[4]; co-administered with CpG oligodeoxynucleotide", "value": "completely cured mice were observed"}, {"measurement": "induction of antigen-specific CD8+ CTLs in lung tissues", "setting": "[5]", "value": "strongly induced"}, {"measurement": "induction of antigen-specific CD8+ CTLs in regional lymph nodes in the lungs", "setting": "[5]", "value": "strongly induced"}, {"measurement": "induction of antigen-specific CD8+ CTLs in the spleen", "setting": "[5]", "value": "strongly induced"}, {"measurement": "induction of antigen-specific CD8+ CTLs in regional lymph nodes in the lungs", "setting": "[6]; pulmonary administration Day 0 and Day 7 with 10 μg CpG oligodeoxynucleotide", "value": "strong induction"}, {"measurement": "induction of antigen-specific CD8+ CTLs in the spleen", "setting": "[6]; subcutaneous administration Day 0 and Day 7 with 10 μg CpG oligodeoxynucleotide", "value": "Strong induction"}]}, {"substance": "[Partial sequence of Kras containing G12D mutation (LVVVGADGV; SEQ ID NO: 42)]-[VSYKAIR; SEQ ID NO: 1] (LVVVGADGVVSYKAIR; G12D-derived peptide; Amino acid sequence of motif sequence) [G12D-FL4, fusion peptide of G12D-derived peptide and FL4]", "values": [{"measurement": "induction of antigen-specific CD8+ CTLs (IFN-γ production ability)", "setting": "[1]", "value": "very strong induction"}]}]}
